System: iPSC-derived cortical neurons
Type: cell-based
[1] = responders vs non-responders after 10 μM Bupropion, p<0.01
[2] = responders vs non-responders, 10 μM Bupropion, NS
[3] = responders vs non-responders, 10 μM Bupropion, p<0.01

## CC(NC(C)(C)C)C(=O)c1cccc(Cl)c1 (stereo not drawn) [Bupropion, 3-Chloro-N-tert-butyl-β-keto-α-methylphenethylamin]
[1]
  logFC PLCH2: −1.051
  logFC PLD5: −1.909
  logFC PLEKHD1: −3.283
  logFC PLPP4: −0.9989
  logFC PODN: −1.12
  logFC POLR2J3: −0.756
  logFC POU4F1: −1.728
  logFC PRCD: −1.032
  logFC PRPH: −2.033
  logFC PRSS33: −1.593
  logFC PSD4: −0.7234
  logFC PSMB8: −1.14
  logFC PSMB9: −1.682
  logFC PTGDS: −1.612
  logFC PTGER2: −2.59
  logFC RAB42: −0.5093
  logFC RBMS3: −0.8065
  logFC RBP1: −0.6676
  logFC RPH3A: −2.057
  logFC RSAD2: −1.646
  logFC S100B: −1.744
  logFC SAMD9: −1.373
  logFC SAMD9L: −1.954
  logFC SH3TC2: −1.437
  logFC SKOR2: −2.986
  logFC SLC2A1: −0.6362
  logFC SLC4A4: −1.35
  logFC SLC38A3: −0.8613
  logFC SMPD1: −0.5833
  logFC SST: −1.012
  logFC SUN2: −0.4523
  logFC SUSD1: −0.629
  logFC SYNC: −1.688
  logFC TAF1C: −0.387
  logFC TAP1: −0.8369
  logFC TAP2: −0.8068
  logFC TBC1D2: −0.6958
  logFC TF: −1.257
  logFC THBS2: −1.7
  logFC TLR6: −1.138
  logFC TLX1: −2.764
  logFC TLX3: −1.593
  logFC TMC3: −2.021
  logFC TMEM175: −0.5016
  logFC TMEM176A: −1.203
  logFC TMEM176B: −1.184
  logFC TNFRSF14: −1.091
  logFC TRAF1: −0.9274
  logFC TREM1: −2.481
  logFC TRIM8: −0.2802
  logFC TRMT9B: −0.6888
  logFC TRPV2: −1.594
  logFC TSHZ3: −1.109
  logFC USH1C: −1.858
  logFC USP18: −0.9659
  logFC VLDLR: −0.4024
  logFC VSTM2B: −1.079
  logFC ZFPM1: −0.5127
  logFC ZNF575: −0.87
[2]
  logFC ADAMTS9 expression: 0.9659
  logFC ADGRE5 expression: 0.9432
  logFC AMMECR1 expression: 0.7173
  logFC ANKRD1 expression: 2.712
  logFC ANKRD18A expression: 1.155
  logFC ANKRD33B expression: 0.8016
  logFC ANLN expression: 0.911
  logFC AP3B1 expression: 0.7614
  logFC ARHGAP10 expression: 1.24
  logFC ARHGAP11A expression: 0.7121
  logFC ARHGAP19 expression: 0.5865
  logFC ARL11 expression: 0.8189
  logFC BAX expression: 0.4774
  logFC BUB1 expression: 0.6384
  logFC C18orf54 expression: 0.7328
  logFC CD53 expression: 1.712
  logFC CDCA7 expression: 0.949
  logFC CDK1 expression: 0.9851
  logFC CDV3 expression: 0.7482
  logFC CENPA expression: 1.025
  logFC CENPH expression: 0.8278
  logFC CENPW expression: 0.7956
  logFC CHEK2 expression: 0.7669
  logFC CHMP4C expression: 0.6773
  logFC CHTF18 expression: 0.4356
  logFC CKS1B expression: 0.5869
  logFC CKS2 expression: 0.7778
  logFC CNN1 expression: 0.8796
  logFC COL17A1 expression: 1.832
  logFC CPVL expression: 0.8555
  logFC CRYZ expression: 1.044
  logFC CSF3R expression: 2.81
  logFC DAG1 expression: 0.5339
  logFC DCP2 expression: 0.7702
  logFC DEPDC1 expression: 1.005
  logFC DHRS2 expression: 3.271
  logFC DIAPH3 expression: 0.9363
  logFC DLGAP5 expression: 0.8304
  logFC DLX4 expression: 1.485
  logFC DLX5 expression: 2.138
  logFC DNMBP expression: 0.5323
  logFC DSG2 expression: 0.746
  logFC DSG3 expression: 2.297
  logFC DSP expression: 1.327
  logFC DUSP6 expression: 0.9289
  logFC EDA2R expression: 0.569
  logFC EFHD1 expression: 0.872
  logFC EGLN3 expression: 1.216
  logFC ELK3 expression: 0.9378
  logFC EME1 expression: 0.7814
  logFC EPHA7 expression: 1.592
  logFC ERLIN1 expression: 0.5945
  logFC ESAM expression: 1.688
  logFC EXOC3L2 expression: 1.012
  logFC FAM72A expression: 1.123
  logFC FAM72B expression: 0.9318
  logFC FAS expression: 1.079
  logFC FBXO5 expression: 0.7533
  logFC FGF23 expression: 1.468
  logFC FNDC1 expression: 0.9667
  logFC FOSL1 expression: 1.137
  logFC FOXL1 expression: 1.191
  logFC FUT10 expression: 0.6404
  logFC GNPNAT1 expression: 1.06
  logFC GTF2H3 expression: 0.8228
  logFC HACD2 expression: 0.8389
  logFC HAT1 expression: 0.7547
  logFC HDAC1 expression: 0.4991
  logFC HHIPL2 expression: 1.368
  logFC HIBADH expression: 0.5725
  logFC HMGB2 expression: 0.5953
  logFC HMMR expression: 0.9939
  logFC HNMT expression: 1.877
  logFC IMPACT expression: 0.7315
  logFC INPP5D expression: 1.208
  logFC IQGAP3 expression: 0.6692
  logFC ITGA2 expression: 0.6822
  logFC KIAA1217 expression: 0.8875
  logFC KIF2C expression: 0.6989
  logFC KIF11 expression: 0.7863
  logFC KIF14 expression: 0.7995
  logFC KIF20B expression: 0.8251
  logFC KIF23 expression: 0.7114
  logFC KRT8 expression: 1.26
  logFC KRT18 expression: 1.596
  logFC L2HGDH expression: 0.7542
  logFC LAMC1 expression: 0.8644
  logFC LPP expression: 0.7521
  logFC LRP4 expression: 1.051
  logFC LRRC15 expression: 0.6532
  logFC LTA4H expression: 0.6494
  logFC MAD2L1 expression: 0.8373
  logFC MAN2A1 expression: 0.8316
  logFC MATN3 expression: 0.9618
  logFC MDM2 expression: 0.6788
  logFC MELK expression: 0.849
  logFC MGST1 expression: 0.9354
  logFC MICB expression: 0.9474
  logFC MSX2 expression: 1.687
  logFC MT1E expression: 0.1751
  logFC MTBP expression: 0.7803
  logFC MUC4 expression: 0.8705
  logFC NDC1 expression: 0.8188
  logFC NDC80 expression: 0.8291
  logFC NEMP1 expression: 0.791
  logFC NGF expression: 0.7928
  logFC NLRP1 expression: 1.235
  logFC NOSTRIN expression: 1.169
  logFC NPPB expression: 1.671
  logFC NUF2 expression: 0.7214
  logFC NUP37 expression: 0.7592
  logFC NUPR1 expression: 1.745
  logFC ORC6 expression: 0.8019
  logFC PADI1 expression: 0.9659
  logFC PGM2 expression: 0.8787
  logFC PLAU expression: 2.302
  logFC PMP22 expression: 1.525
  logFC POLQ expression: 0.7494
  logFC PPP1R13L expression: 0.8159
  logFC PRDX6 expression: 0.5898
  logFC PROCR expression: 1.393
  logFC PRR11 expression: 0.6089
  logFC PTGR1 expression: 0.6824
  logFC PYGL expression: 0.8577
  logFC RAD51AP1 expression: 1.085
  logFC RBMS1 expression: 0.7861
  logFC RPL22L1 expression: 1.141
  logFC RPS27L expression: 0.7459
  logFC RREB1 expression: 0.5116
  logFC RRM2B expression: 0.7867
  logFC RUNX2 expression: 0.8924
  logFC S1PR5 expression: 1.906
  logFC SELENOV expression: 0.8135
  logFC SEM1 expression: 0.5019
  logFC SEPSECS expression: 0.7254
  logFC SEPTIN10 expression: 0.7236
  logFC SERPINE1 expression: 2.019
  logFC SESN1 expression: 0.7238
  logFC SFT2D1 expression: 0.6487
  logFC SLC22A31 expression: 0.9625
  logFC SLC47A1 expression: 2.056
  logFC SPDL1 expression: 0.7492
  logFC SPOCD1 expression: 1.33
  logFC SPP1 expression: 1.215
  logFC STIL expression: 0.759
  logFC STX3 expression: 0.5017
  logFC SWAP70 expression: 0.8869
  logFC TAF4B expression: 0.9582
  logFC TFPI2 expression: 1.367
  logFC TGIF1 expression: 0.8371
  logFC TM7SF3 expression: 0.5627
  logFC TMTC1 expression: 1.156
  logFC TNFRSF10D expression: 0.8463
  logFC TNFRSF12A expression: 0.7449
  logFC TOP2A expression: 0.7201
  logFC TPM1 expression: 0.7857
  logFC TRAM2 expression: 0.5417
  logFC TRIAP1 expression: 0.7343
  logFC TTK expression: 0.82
  logFC UBE2C expression: 0.5692
  logFC USP28 expression: 0.4989
  logFC USP53 expression: 0.8262
  logFC VRK1 expression: 0.7229
  logFC VWDE expression: 1.176
  logFC WEE1 expression: 1.13
  logFC WNT9B expression: 0.5972
  logFC WWC2 expression: 0.7083
  logFC XPO1 expression: 0.7396
  logFC YBX3 expression: 0.5165
  logFC ZGRF1 expression: 0.9121
  logFC ZIC2 expression: 0.7767
[3]
  logFC ADAL expression: 0.3007
  logFC ANKRD27 expression: 0.3035
  logFC ARHGEF26 expression: 0.4633
  logFC ATAD5 expression: 0.5442
  logFC BAG4 expression: 0.4071
  logFC CCDC150 expression: 0.6042
  logFC CDH6 expression: 0.9224
  logFC CHML expression: 0.4888
  logFC DHFR expression: 0.5987
  logFC DLX2 expression: 0.9412
  logFC DMRTA1 expression: 0.858
  logFC DNA2 expression: 0.5431
  logFC EIF1AX expression: 0.5493
  logFC F8 expression: 0.4608
  logFC FBXO22 expression: 0.2957
  logFC FREM2 expression: 0.865
  logFC GPC3 expression: 1.257
  logFC HAUS6 expression: 0.5025
  logFC HLA-DMA expression: 0.9185
  logFC ITGA6 expression: 0.5208
